Measured values as given in patent US5374733A, “Sweetening agent derived from L-aspartic or L-glutamic acid” (priority 1989, dated 1994).

Assay: not given
Conditions: Table 2, EP-A-0.338.946; sucrose concentration not stated; cited from earlier work

| Structure (SMILES) | SP |
| --- | --- |
| CCCCCCCN[C@@H](CCC(=O)O)C(=O)Nc1ccc(C#N)nc1 [CH3 (CH2)5 CH2/2/2-CN-pyrid-5-yl] | 4000 |
| CCC(CC)CN[C@@H](CC(=O)O)C(=O)Nc1ccc(C#N)cc1 [(CH3 CH2)2 CHCH2/1/4-CN--C6 H4] | 200 |
| CC(CCN[C@@H](CCC(=O)O)C(=O)Nc1ccc(C#N)cc1)c1ccccc1 (stereo partly drawn) [C6 H5 CH(CH3)CH2 CH2/2/4-CN--C6 H4] | 400 |
| CCCC=CCN[C@@H](CCC(=O)O)C(=O)Nc1ccc(C#N)cc1 [CH3 (CH2)2 CH=CHCH2/2/4-CN--C6 H4] | 3000 |
| CC=CC=CCN[C@@H](CCC(=O)O)C(=O)Nc1ccc(C#N)cc1 [CH3 CH=CHCH=CHCH2/2/4-CN--C6 H4] | 2000 |
| N#Cc1ccc(NC(=O)[C@H](CCC(=O)O)NCCCc2ccccc2)cc1 [C6 H5 CH2 CH2 CH2/2/4-CN--C6 H4] | 800 |
| CCCCCCCN[C@@H](CCC(=O)O)C(=O)Nc1ccc(C#N)cc1 [CH3 (CH2)5 CH2/2/4-CN--C6 H4] | 7000 |
| N#Cc1ccc(NC(=O)[C@H](CC(=O)O)NCC2CCCCC2)cc1 [c-C6 H11 CH2/1/4-CN--C6 H4] | 200 |
| N#Cc1ccc(NC(=O)[C@H](CCC(=O)O)NCC=Cc2ccccc2)cc1 [C6 H5 CH=CHCH2/2/4-CN--C6 H4] | 2000 |
| CC(N[C@@H](CC(=O)O)C(=O)Nc1ccc(C#N)cc1)C1CCCCC1 (stereo partly drawn) [c-C6 H11 CH(CH3)/1/4-CN--C6 H4] | 200 |
| N#Cc1ccc(NC(=O)[C@H](CCC(=O)O)NCc2ccccc2)cc1 [C6 H5 CH2/2/4-CN--C6 H4] | 20 |
| N#Cc1ccc(NC(=O)[C@H](CCC(=O)O)NCCCC2CCCCC2)cc1 [c-C6 H11 CH2 CH2 CH2/2/4-CN--C6 H4] | 7000 |
| CCCCCN[C@@H](CC(=O)O)C(=O)Nc1ccc(C#N)cc1 [CH3 (CH2)3 CH2/1/4-CN--C6 H4] | 300 |

Same assay, conditions: prior art and aspartame; sucrose concentration not given; cited from earlier work

| Structure (SMILES) | sweetening potency |
| --- | --- |
| O=C(O)C[C@H](NC(=O)C(F)(F)F)C(=O)Nc1cccnc1 [Y=H, X=CF3 CO] | 40 times that of sucrose |
| O=C(O)C[C@H](NC(=O)C(Cl)(Cl)Cl)C(=O)Nc1cccnc1 [Y=H, X=CCl3 CO] | 1 times that of sucrose |

Assay: Sweetening potency: taste comparison by a team of eight experienced people with a sucrose reference solution
Conditions: Table 3; weight basis, compared with a 2% aqueous solution of sucrose
Description: The sweetening potency of the compounds described in the Examples was evaluated by a team of eight experienced people. This is done by comparing the taste of the compounds, in aqueous solution at variable concentrations, with a 2%, 5 % or 10 % reference solution of sucrose. The sweetening potency of the test compound compared with sucrose then corresponds to the weight ratio between the compound and sucrose for equal sweetening intensity, i.e. when the sweet tastes of the solution of the test compound and the reference solution of sucrose are considered, by a majority of people, to have the same sweetening intensity.
Summary Table 3 below gives, by way of examples, a list of a few compounds obtained by experimental protocols similar to those described above, which those skilled in the art will easily find, together with their relative sweetening potency (SP), evaluated on a weight basis, compared with a 2% aqueous solution of sucrose. When the groups R1, R2 and R3 are different, the configuration of the asymmetric carbon to which they are bonded (carbon marked with an asterisk) is designated according to the conventional rules of stereochemistry using the R/S system: R, S or, when both configurations coexist in the same compound, RS.

| Structure (SMILES) | SP (relative sweetening potency) |
| --- | --- |
| N#Cc1ccc(NC(=O)[C@H](CC(=O)O)NC(=O)C2(c3ccccc3)CC2)cc1 [CH2 CH2/C6 H5/1/CH/CH/CN] | 1000 |
| CC(Oc1ccccc1)C(=O)N[C@@H](CCC(=O)O)C(=O)Nc1ccc(C#N)nc1 (stereo partly drawn) [CH3/H/C6 H5 O/RS/2/N/CH/CN] | 13000 |
| C=CCC(C)(C)C(=O)N[C@@H](CCC(=O)O)C(=O)Nc1ccc(C#N)cc1 [CH3/CH3/CH2 CHCH2/2/CH/CH/CN] | 500 |
| CCCC[C@@H](C)C(=O)N[C@@H](CCC(=O)O)C(=O)Nc1ccc(C#N)cc1 [CH3/H/CH3 (CH2)3/R/2/CH/CH/CN] | 3000 |
| N#Cc1ccc(NC(=O)[C@H](CCC(=O)O)NC(=O)C2(c3ccccc3)CC2)cc1 [CH2 CH2/C6 H5/2/CH/CH/CN] | 2500 |
| CCCC[C@@H](C)C(=O)N[C@@H](CCC(=O)O)C(=O)Nc1ccc(C#N)nc1 [CH3/H/CH3 (CH2)3/R/2/N/CH/CN] | 2000 |
| CCCO[C@H](C)C(=O)N[C@@H](CCC(=O)O)C(=O)Nc1ccc(C#N)cc1 [CH3/H/CH3 (CH2)2 O/R/2/CH/CH/CN] | 400 |
| N#Cc1ccc(NC(=O)[C@H](CCC(=O)O)NC(=O)C2(c3ccccc3)CCCC2)cn1 [CH2 (CH2)2 CH2/C6 H5/2/N/CH/CN] | 3000 |
| C[C@H](C(=O)N[C@@H](CCC(=O)O)C(=O)Nc1ccc(C#N)cc1)c1ccccc1 [CH3/H/C6 H5/S/2/CH/CH/CN] | 1500 |
| CCCCC(OC)C(=O)N[C@@H](CCC(=O)O)C(=O)Nc1ccc(C#N)nc1 (stereo partly drawn) [CH3 O/H/CH3 (CH2)3/RS/2/N/CH/CN] | 2000 |
| C[C@@H](C(=O)N[C@@H](CCC(=O)O)C(=O)Nc1ccc(C#N)cc1)c1ccccc1 [CH3/H/C6 H5/R/2/CH/CH/CN] | 1300 |
| C[C@@H](C(=O)N[C@@H](CCC(=O)O)C(=O)Nc1ccc(C#N)nc1)c1ccccc1 [CH3/H/C6 H5/R/2/N/CH/CN] | 2500 |
| CCCC[C@H](C)C(=O)N[C@@H](CCC(=O)O)C(=O)Nc1cnc(C#N)nc1 [CH3/H/CH3 (CH2)3/S/2/N/N/CN] | 10000 |
| CO[C@](C(=O)N[C@@H](CCC(=O)O)C(=O)Nc1ccc(C#N)cc1)(c1ccccc1)C(F)(F)F [CF3/CH3 O/C6 H5/S/2/CH/CH/CN] | 600 |
| N#Cc1ccc(NC(=O)[C@H](CCC(=O)O)NC(=O)C2(c3ccccc3)CCCC2)cc1 [CH2 (CH2)2 CH2/C6 H5/2/CH/CH/CN] | 2000 |
| CC(OC1C(C)CCCC1C)C(=O)N[C@@H](CCC(=O)O)C(=O)Nc1ccc(C#N)cc1 (stereo partly drawn) [CH3/H/(2,6-diMe)-c-C6 H9 O/RS/2/CH/CH/CN] | 1000 |
| COC(C(=O)N[C@@H](CCC(=O)O)C(=O)Nc1ccc(C#N)cc1)c1ccccc1 (stereo partly drawn) [CH3 O/H/C6 H5/RS/2/CH/CH/CN] | 2300 |
| CC(Oc1ccccc1)C(=O)N[C@@H](CCC(=O)O)C(=O)Nc1ccc(C#N)cc1 (stereo partly drawn) [CH3/H/C6 H5 O/RS/2/CH/CH/CN] | 4000 |
| CC(C)CCC(C)C(=O)N[C@@H](CCC(=O)O)C(=O)Nc1ccc(C#N)cc1 (stereo partly drawn) [CH3/H/(CH3)2 CH(CH2)2/RS/2/CH/CH/CN] | 6000 |
| CCCCC(C)(C)C(=O)N[C@@H](CCC(=O)O)C(=O)Nc1ccc(Cl)nc1 [CH3/CH3/CH3 (CH2)3/2/N/CH/Cl] | 600 |

| Structure (SMILES) | SP (relative sweetening potency) |
| --- | --- |
| CO[C@@H](C(=O)N[C@@H](CCC(=O)O)C(=O)Nc1ccc(C#N)nc1)c1ccccc1 [CH3 O/H/C6 H5/R/2/N/CH/CN] | 11000 |
| N#Cc1ccc(NC(=O)[C@H](CCC(=O)O)NC(=O)C(c2ccccc2)c2ccccc2)cc1 [C6 H5/H/C6 H5/2/CH/CH/CN] | 250 |
| N#Cc1ccc(NC(=O)[C@H](CCC(=O)O)NC(=O)C(Cl)c2ccccc2)cc1 (stereo partly drawn) [Cl/H/C6 H5/RS/2/CH/CH/CN] | 2200 |
| CCCCC(C)(C)C(=O)N[C@@H](CCC(=O)O)C(=O)Nc1ccc(C#N)cc1 [CH3/CH3/CH3 (CH2)3/2/CH/CH/CN] | 11000 |
| CCCCC(C)C(=O)N[C@@H](CC(=O)O)C(=O)Nc1ccc(C#N)cc1 (stereo partly drawn) [CH3/H/CH3 (CH2)3/RS/1/CH/CH/CN] | 1500 |
| CCCCC(CC)C(=O)N[C@@H](CCC(=O)O)C(=O)Nc1ccc(C#N)cc1 (stereo partly drawn) [C2 H5/H/CH3 (CH2)3/RS/2/CH/CH/CN] | 5000 |
| CC(C(=O)N[C@@H](CCC(=O)O)C(=O)Nc1ccc(C#N)cc1)C1CCCCC1 (stereo partly drawn) [CH3/H/c-C6 H11/RS/2/CH/CH/CN] | 1000 |
| CCC(C(=O)N[C@@H](CCC(=O)O)C(=O)Nc1ccc(C#N)cc1)c1ccccc1 (stereo partly drawn) [C2 H5/H/C6 H5/RS/2/CH/CH/CN] | 2700 |
| CO[C@H](C(=O)N[C@@H](CCC(=O)O)C(=O)Nc1ccc(C#N)nc1)c1ccccc1 [CH3 O/H/C6 H5/S/2/N/CH/CN] | 3000 |
| CCC[C@@H](C)C(=O)N[C@@H](CCC(=O)O)C(=O)Nc1ccc(C#N)cc1 [CH3/H/CH3 (CH2)2/R/2/CH/CH/CN] | 500 |
| CCCC[C@H](C)C(=O)N[C@@H](CCC(=O)O)C(=O)Nc1ccc(C(N)=O)cc1 [CH3/H/CH3 (CH2)3/S/2/CH/CH/CONH2] | 700 |
| CCCCCC(C)C(=O)N[C@@H](CCC(=O)O)C(=O)Nc1ccc(C#N)cc1 (stereo partly drawn) [CH3/H/CH3 (CH2)4/RS/2/CH/CH/CN] | 1000 |
| CCCO[C@@H](C)C(=O)N[C@@H](CCC(=O)O)C(=O)Nc1ccc(C#N)cc1 [CH3/H/CH3 (CH2)2 O/S/2/CH/CH/CN] | 200 |
| CCC[C@H](C)C(=O)N[C@@H](CCC(=O)O)C(=O)Nc1ccc(C#N)cc1 [CH3/H/CH3 (CH2)2/S/2/CH/CH/CN] | 2800 |
| CCCC[C@H](C)C(=O)N[C@@H](CCC(=O)O)C(=O)Nc1ccc(C(C)=O)cc1 [CH3/H/CH3 (CH2)3/S/2/CH/CH/COCH3] | 300 |
| C[C@@H](Oc1ccccc1)C(=O)N[C@@H](CC(=O)O)C(=O)Nc1ccc(C#N)cc1 [CH3/H/C6 H5 O/R/1/CH/CH/CN] | 18000 |
| CC(C)CCC(C)(C)C(=O)N[C@@H](CCC(=O)O)C(=O)Nc1ccc(C#N)cc1 [CH3/CH3/(CH3)2 CH(CH2)2/2/CH/CH/CN] | 10000 |
| CCCCCC(C)(C)C(=O)N[C@@H](CCC(=O)O)C(=O)Nc1ccc(C#N)nc1 [CH3/CH3/CH3 (CH2) 4/2/N/CH/CN] | 3000 |
| C[C@H](C(=O)N[C@@H](CCC(=O)O)C(=O)Nc1ccc(C#N)nc1)c1ccccc1 [CH3/H/C6 H5/S/2/N/CH/CN] | 4000 |
